Assay: wn = mass fraction of the nth substance listed
Conditions: 101 kPa, Liquid, Concentric cylinders viscometry

CC(O)CN(C)C (centres undefined) [1-(dimethylamino)-2-propanol] + O
viscosity [mPa·s]
Conditions	303.2 K	313.2 K	323.2 K
w1 = 0.3	3.1	2.18	1.66
w1 = 0.4	4.56	3.08	2.19
w1 = 0.5	6.01	3.96	2.79
